Reference: ChEMBL document CHEMBL4425185, “Efforts towards the optimization of a bi-aryl class of potent IRAK4 inhibitors” (Bioorg Med Chem Lett, 2016)

Key:
[1] = target: T1, Interleukin-1 receptor-associated kinase 4 (Homo sapiens, UniProt Q9NWZ3); assay: Inhibition of human recombinant N-terminal GST-tagged full-length IRAK4 expressed in baculovirus infected Sf9 insect cells using 5FAM-RKRQGSVRRRVH-COOH as substrate in presence of ATP by IMAP fluorescence polarization assay
T1 sequence (Q9NWZ3 whole entry): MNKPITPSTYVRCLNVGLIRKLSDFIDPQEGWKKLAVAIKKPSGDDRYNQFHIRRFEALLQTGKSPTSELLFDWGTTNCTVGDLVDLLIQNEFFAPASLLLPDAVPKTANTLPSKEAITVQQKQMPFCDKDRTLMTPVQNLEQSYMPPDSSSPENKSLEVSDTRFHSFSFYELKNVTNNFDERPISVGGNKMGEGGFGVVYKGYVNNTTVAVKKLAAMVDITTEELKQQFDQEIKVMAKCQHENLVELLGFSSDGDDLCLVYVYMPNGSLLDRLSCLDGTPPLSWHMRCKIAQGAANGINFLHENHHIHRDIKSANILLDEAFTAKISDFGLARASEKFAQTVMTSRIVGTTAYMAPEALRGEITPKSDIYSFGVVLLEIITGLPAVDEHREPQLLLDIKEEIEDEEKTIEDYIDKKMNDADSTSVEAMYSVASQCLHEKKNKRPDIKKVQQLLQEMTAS

[2] = target: T1, Interleukin-1 receptor-associated kinase 4; assay: Inhibition of […] IRAK4 in human THP1-XBlue cells assessed as decrease in NF-kappaB level preincubated for 1 hr followed by stimulation with LPS for 4 to 5 hrs measured after 30 mins by spectrophotometric analysis; format: cell-based
[3] = target: T2, Interleukin-1 receptor-associated kinase 4 (Homo sapiens) (UniProt Q9NWZ3); assay: Ratio of IC50 for IRAK4 inhibition in human THP1-XBlue cells to IC50 for inhibition of human IRAK4; format: cell-based
T2 sequence (whole entry): T1 sequence (Q9NWZ3 whole entry)

MDR1 = assay: Efflux ratio of permeability in dog MDCK2-MDR1 cells; format: ADME, cell-based, Canis lupus familiaris; conditions: MDCK-MDR1
Cytochrome P450 [4] = assay: Inhibition of CYP450 (unknown origin); format: ADME, protein assay; conditions: human
[5] = Clearance in rat; format: ADME; conditions: in vivo
Homo sapiens [6] = organism: Homo sapiens; assay: Selectivity for human IRAK4 over human LRRK2
Homo sapiens [7] = organism: Homo sapiens; assay: Selectivity for human IRAK4 over GST-tagged human MINK1
[8] = target: Voltage-gated inwardly rectifying potassium channel KCNH2 (Homo sapiens, UniProt Q12809); assay: Inhibition of MK499 binding to human ERG
[9] = Clearance in rat at 0.15 mg/kg, iv; format: ADME, organism-based; conditions: in vivo
Cytochrome P450 [10] = assay: Induction of CYP450 (unknown origin); format: ADME; conditions: human
[11] = Apparent permeability in dog MDCK2-MDR1 cells; format: ADME, cell-based, Canis lupus familiaris; conditions: MDCK-MDR1
[12] = Clearance in rat at 2 mg/kg, iv; format: ADME, organism-based; conditions: in vivo
[13] = Clearance in rat at 1.45 mg/kg, iv; format: ADME, organism-based; conditions: in vivo

Voltage-gated inwardly rectifying potassium channel KCNH2, sequence (Q12809 whole entry): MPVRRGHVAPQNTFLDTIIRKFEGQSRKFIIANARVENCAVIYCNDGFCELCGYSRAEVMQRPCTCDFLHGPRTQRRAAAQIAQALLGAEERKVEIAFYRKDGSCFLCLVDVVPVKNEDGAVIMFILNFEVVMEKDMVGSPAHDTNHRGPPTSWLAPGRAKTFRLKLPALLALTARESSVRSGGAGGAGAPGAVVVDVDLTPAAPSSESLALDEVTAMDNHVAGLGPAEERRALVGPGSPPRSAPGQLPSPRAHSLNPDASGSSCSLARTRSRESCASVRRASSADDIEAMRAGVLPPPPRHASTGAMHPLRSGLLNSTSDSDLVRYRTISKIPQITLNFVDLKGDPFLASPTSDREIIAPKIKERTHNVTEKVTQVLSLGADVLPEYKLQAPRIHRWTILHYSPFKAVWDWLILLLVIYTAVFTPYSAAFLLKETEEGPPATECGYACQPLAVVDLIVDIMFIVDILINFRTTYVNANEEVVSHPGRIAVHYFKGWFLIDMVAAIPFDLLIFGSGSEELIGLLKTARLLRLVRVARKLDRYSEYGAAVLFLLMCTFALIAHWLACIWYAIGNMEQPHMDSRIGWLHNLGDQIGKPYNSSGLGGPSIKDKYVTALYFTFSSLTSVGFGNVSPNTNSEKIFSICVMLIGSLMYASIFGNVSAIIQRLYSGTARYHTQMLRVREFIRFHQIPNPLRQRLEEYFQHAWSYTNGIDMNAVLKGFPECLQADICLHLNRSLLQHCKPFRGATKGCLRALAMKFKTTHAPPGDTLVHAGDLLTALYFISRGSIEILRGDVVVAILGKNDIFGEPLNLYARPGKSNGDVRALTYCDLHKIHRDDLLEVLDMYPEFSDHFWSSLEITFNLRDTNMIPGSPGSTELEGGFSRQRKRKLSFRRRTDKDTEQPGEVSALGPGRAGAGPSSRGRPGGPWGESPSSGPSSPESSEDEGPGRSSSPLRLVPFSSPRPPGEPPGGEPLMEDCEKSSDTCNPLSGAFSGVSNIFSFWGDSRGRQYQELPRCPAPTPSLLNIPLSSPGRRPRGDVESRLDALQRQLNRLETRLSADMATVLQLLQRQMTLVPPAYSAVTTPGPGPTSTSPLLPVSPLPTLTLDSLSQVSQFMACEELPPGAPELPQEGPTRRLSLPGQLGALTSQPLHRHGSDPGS

## Cn1cc(NC(=O)c2cccc(-c3ccnc(NCC4CC4)c3)n2)c(C(=O)NCc2ccccc2)n1
[1]
  IC50: > 5000 nM

## Cn1cc(NC(=O)c2cccc(-c3cncc(Cl)c3)n2)c(C(N)=O)n1
[2]
  IC50: 202 nM
[3]
  Ratio IC50: < 3
[1]
  IC50: 106 nM

## CN(C)CCCNC(=O)c1nn(C)cc1NC(=O)c1cccc(-c2ccnc(NCC3CC3)c2)n1
[1]
  IC50: 542 nM

## Cn1cc(NC(=O)c2cnn3ccc(N4CCNCC4)nc23)c(C(N)=O)n1
MDR1
  efflux ratio: 1
[2]
  IC50: 150 nM
[3]
  Ratio IC50: < 3
Cytochrome P450 [4]
  inhibition (INH): Not Active
[5]
  clearance: 3 mL/min/kg
Homo sapiens [6]
  Selectivity ratio: < 10
[1]
  IC50: 38 nM
Homo sapiens [7]
  Selectivity ratio: < 10
[8]
  IC50: > 60000 nM
[9]
  clearance: 39 mL/min/kg
Cytochrome P450 [10]
  Activity: Not Active
[11]
  Papp: 1.6 ×10⁻⁶ cm/s

## Cn1cc(NC(=O)c2cccc(-c3ccnc(NCC4CC4)c3)n2)c(C(=O)N2CCC(O)C2)n1 (stereo not given)
[1]
  IC50: > 5000 nM

## Cn1cc(NC(=O)c2cccc(-c3ccnc(NCC4CC4)c3)n2)c(C(=O)NCc2ccncc2)n1
[1]
  IC50: > 5000 nM

## Cn1cc(-c2cccc(C(=O)Nc3cn(C)nc3C(N)=O)n2)cn1
MDR1
  efflux ratio: 0.5
[2]
  IC50: 138 nM
[3]
  Ratio IC50: < 3
Cytochrome P450 [4]
  inhibition (INH): Not Active
[5]
  clearance: 53 mL/min/kg
Homo sapiens [6]
  Selectivity ratio: < 10
[1]
  IC50: 36 nM
Homo sapiens [7]
  Selectivity ratio: < 10
[8]
  IC50: > 60000 nM
[9]
  clearance: 53 mL/min/kg
Cytochrome P450 [10]
  Activity: Not Active
[11]
  Papp: 29 ×10⁻⁶ cm/s

## CN(C)[C@H]1CN(C(=O)c2nn(C)cc2NC(=O)c2cccc(-c3ccnc(NCC4CC4)c3)n2)C[C@@H]1O
[2]
  IC50: 533 nM
[3]
  Ratio IC50: < 3
[5]
  clearance: 37 mL/min/kg
[8]
  IC50: > 60000 nM
[11]
  Papp: 11 ×10⁻⁶ cm/s

## Cn1cc(NC(=O)c2cccc(-c3ccnc(NCC4CC4)c3)n2)c(C(=O)NC2CCCC2)n1
[1]
  IC50: > 5000 nM

## Cn1cc(NC(=O)c2cccc(-c3ccnc(NCC4CC4)c3)n2)c(C(N)=O)n1
MDR1
  efflux ratio: 0.3
[2]
  IC50: 169 nM
[3]
  Ratio IC50: < 3
Cytochrome P450 [4]
  inhibition (INH): Not Active
[5]
  clearance: 17 mL/min/kg
Homo sapiens [6]
  Selectivity ratio: < 10
[12]
  clearance: 33 mL/min/kg
Homo sapiens [7]
  Selectivity ratio: < 10
[8]
  IC50: 2900 nM
Cytochrome P450 [10]
  Activity: Not Active
[11]
  Papp: 18 ×10⁻⁶ cm/s

## Cn1cc(NC(=O)c2cccc(-c3ccnc(N)c3)n2)c(C(N)=O)n1
[2]
  IC50: 259 nM
[3]
  Ratio IC50: < 3
[5]
  clearance: 24 mL/min/kg
[12]
  clearance: 69 mL/min/kg
[8]
  IC50: 25000 nM
[11]
  Papp: 23 ×10⁻⁶ cm/s

## Cn1cc(NC(=O)c2cccc(-c3ccnc(NCC(F)(F)F)c3)n2)c(C(N)=O)n1
[2]
  IC50: 294 nM
[3]
  Ratio IC50: < 3

## CC(C)CNC(=O)c1nn(C)cc1NC(=O)c1cccc(-c2ccnc(NCC3CC3)c2)n1
[1]
  IC50: > 5000 nM

## Cn1cc(NC(=O)c2cccc(-c3ccc(C4CC4)nc3)n2)c(C(N)=O)n1
[2]
  IC50: 307 nM
[3]
  Ratio IC50: < 3
[5]
  clearance: 30 mL/min/kg
[1]
  IC50: 121 nM
[8]
  IC50: > 60000 nM

## Cn1cc(NC(=O)c2cccc(-c3ccnc(NCC4CC4)c3)c2)c(C(N)=O)n1
[2]
  IC50: 428 nM
[3]
  Ratio IC50: < 3
[5]
  clearance: 25 mL/min/kg
[13]
  clearance: 32 mL/min/kg
[1]
  IC50: 187 nM
[8]
  IC50: 6100 nM

## Cn1cc(NC(=O)c2cccc(-c3ccnc(NCC4CC4)c3)n2)c(C(=O)N2CC(CN)C2)n1
[2]
  IC50: 477 nM
[3]
  Ratio IC50: < 3
[5]
  clearance: 6 mL/min/kg
[8]
  IC50: 40000 nM

## Cn1cc(NC(=O)c2ccnc(-c3ccnc(NCC4CC4)c3)n2)c(C(N)=O)n1
[5]
  clearance: 43 mL/min/kg
[8]
  IC50: 1900 nM

## Cn1cc(NC(=O)c2cccc(-c3cccnc3)n2)c(C(N)=O)n1
[5]
  clearance: 54 mL/min/kg

## Cn1cc(NC(=O)c2cc(-c3ccnc(NCC4CC4)c3)ccn2)c(C(N)=O)n1
[1]
  IC50: > 5000 nM

## Cn1cc(NC(=O)c2cccc(-c3ccccc3)n2)c(C(N)=O)n1
[1]
  IC50: 3650 nM

## Cn1cc(NC(=O)c2cccc(-c3cnccc3Cl)n2)c(C(N)=O)n1
[1]
  IC50: 683 nM

## CN1CCCC(CNC(=O)c2nn(C)cc2NC(=O)c2cccc(-c3ccnc(NCC4CC4)c3)n2)C1 (stereo not given)
[5]
  clearance: 21 mL/min/kg
[8]
  IC50: 12000 nM

## Cn1cc(NC(=O)c2cccc(-c3ccsc3)n2)c(C(N)=O)n1
[1]
  IC50: 401 nM

## Cn1cc(NC(=O)c2cccc(-c3ccnc(NCC4CC4)c3)n2)c(C(=O)NCc2ncc[nH]2)n1
[1]
  IC50: 1610 nM

## Cn1cc(NC(=O)c2cncc(-c3ccnc(NCC4CC4)c3)c2)c(C(N)=O)n1
[5]
  clearance: 53 mL/min/kg
[13]
  clearance: 31 mL/min/kg
[8]
  IC50: 5200 nM
